Literature values as cited in publication PMC3694426 (Clinical cancer research : an official journal of the …, 2013).

How the values were obtained:
[1] = system: B837Tx medulloblastoma allograft; settings: oral administration; cited from earlier work
[2] = system: transgenic pancreatic cancer models; settings: cited from earlier work
[3] = system: SCLC tumors; settings: cited from earlier work

CC1=C2C[C@H]3[C@@H](CC[C@@H]4C[C@H](NS(C)(=O)=O)CC[C@@]43C)[C@@H]2CC[C@@]2(C1)O[C@@H]1C[C@H](C)CN[C@H]1[C@H]2C [IPI-926]
inhibition of HhP activity (downregulation of Gli1 mRNA) [1]: dose-dependent inhibition of HhP activity | survival of mice bearing orthotopically implanted tumors [1]: significant prolongation of survival | intratumoral concentration of gemcitabine [2]: enhanced intratumoral concentration of gemcitabine | regrowth of SCLC tumors following chemotherapy [3]: delays regrowth
